From US11492359B2, “Near-infrared nerve-sparing fluorophores” (OREGON HEALTH & SCIENCE UNIVERSITY, priority 2018, dated 2022)

Test: UV-Vis absorption and fluorescence spectroscopy of the Oxazine library
Format: physicochemical
Conditions: for Extinction coefficient: Beer's Law plots; for Quantum yield: relative, references Oxazine 1, Oxazine 170, Rhodamine 101
Description: All reagents were purchased from Sigma Aldrich, Fisher Scientific, TCI, or Ark Pharm. Unless otherwise indicated, all commercially available starting materials were used directly without further purification. Analytical thin layer chromatography (TLC) was performed on Millipore ready-to-use plates with silica gel 60 (F254, 32-63 μm). Flash chromatography was performed on Sorbent Technologies silica gel for column chromatography or on a Biotage Isolera Flash System using SNAP Ultra cartridges. High-resolution mass spectra (HRMS) were measured on a ThermoElectron LTQ-Orbitrap high resolution mass spectrometer with a dedicated Accela HPLC system, or an Agilent 6244 time-of-flight LCMS with diode array detector VL+. LCMS and Purity Characterization Mass-to-charge ratio and purity of the Oxazine compounds were characterized on an Agilent 6244 time-of-flight tandem liquid chromatography mass spectroscopy (LCMS) with diode array detector VL+. Sample (10 μL) was injected into a C18 column (Poroshell 120, 4.6×50 mm, 2.7 micron), and eluted with a solvent system of A (H2O, 0.1% FA) and B (MeCN, 01.% FA) at 0.4 mL/min, from A/B=90/10 to 5/95 over 10 min, maintained at A/B=5/95 for additional 5 min. Ions were detected in positive ion mode by setting the capillary voltage at 4 kV and gas temperature at 350° C. Purity was calculated through area under the curve analysis of the absorbance at 254 nm. UV-Vis Absorption and Fluorescence Spectroscopy. UV-Vis spectra were collected with a Cary 50 UV-Vis spectrophotometer at room temperature, using a 1-cm quartz cuvette. Fluorescence spectra were collected on a Cary Eclipse fluorescence spectrophotometer (Agilent Technologies). All absorbance spectra were reference corrected. Extinction coefficient was calculated from Beer's Law plots of absorbance versus concentration. Fluorescence spectra were corrected for the wavelength dependent response of the R928 photomultiplier tube using a manufacturer generated correction file. Relative quantum yields are reported as the average of multiple measurements using multiple references, including Oxazine 1, Oxazine 170, and Rhodamine 101. Physicochemical Property Calculation. Physicochemical partition coefficients (Log D) values at pH 7.4, number of hydrogen bond donors and acceptors, polar surface area, and the number of rotatable bonds were calculated using Marvin and JChem calculator plugins (ChemAxon, Budapest, Hungary). Nerve-Specificity Screening using Direct/Topical Administration Each compound was screened for its tissue-specificity using a previously published direct/topical administration strategy in murine brachial plexus and sciatic nerves.^1 Each compound from the Oxazine library was formulated in the previously utilized co-solvent formulation (10% DMSO, 5% Kolliphor, 65% serum and 20% phosphate buffered saline) at 125 μM. 100 μL of the formulated Oxazine were incubated on the exposed brachial plexus or sciatic nerve for 5 minutes. The fluorophore containing solution was removed and the area was irrigated with saline 18 times to remove any unbound fluorophore. Co-registered fluorescence and color images were collected of each stained area 30 minutes after Oxazine direct/topical administration using a custom built macroscopic imaging system with 620/60 nm excitation and 700/75 nm bandpass emission filters. Custom written MatLab code was used to analyze the tissue specific fluorescence where regions of interest were selected on the nerve, muscle and adipose tissue using the white light images. These regions of interest were then analyzed on the co-registered matched fluorescence images permitting assessment of the nerve to muscle and nerve to adipose ratios in blinded manner. […]

Molecule | Max Abs | Max Em | Max Ex | Extinction coefficient | Quantum yield
CCNc1cc2oc3cc(=[N+](CC)CC)ccc-3nc2cc1Cl [LGW05-33, N-(8-chloro-7-(ethylamino)-3H-phenoxazin-3-ylidene)-N-ethylethanaminium] | 638 nm | 660 nm | 640 nm | 36166 M⁻¹ cm⁻¹ | 3.84%
CC[N+](CC)=c1ccc2nc3cc4c(cc3oc-2c1)NCCC4 [LGW03-13, N-ethyl-N-(1,2,3,4-tetrahydro-9H-pyrido[3,2-b]phenoxazin-9-ylidene)ethanaminium] | 641 nm | 659 nm | 645 nm | 64045 M⁻¹ cm⁻¹ | 6.49%
CCNc1ccc2nc3ccc(=[N+](CC)CC)cc-3oc2c1C [LGW02-60, N-ethyl-N-(7-(ethylamino)-6-methyl-3H-phenoxazin-3-ylidene)ethanaminium] | 645 nm | 661 nm | 650 nm | 65369 M⁻¹ cm⁻¹ | 8.98%
CCNc1cc(C)c2nc3ccc(=[N+](CC)CC)cc-3oc2c1 [LGW02-61, N-ethyl-N-(7-(ethylamino)-9-methyl-3H-phenoxazin-3-ylidene)ethanaminium] | 630 nm | 658 nm | 635 nm | 68548 M⁻¹ cm⁻¹ | 6.12%
CCN(CC)c1ccc2nc3ccc(=[N+](CC)CC)cc-3oc2c1.[O-][Cl+3]([O-])([O-])[O-] [OX-1, reference compound] | 655 nm | 671 nm | 660 nm | 93211 M⁻¹ cm⁻¹ | 7.40%
CC/N=c1/cc2oc3cc(NCC)ccc3nc-2cc1C [LGW01-18, (Z)—N-(7-(ethylamino)-2-methyl-3H-phenoxazin-3-ylidene)ethanaminium] | 617 nm | 636 nm | 620 nm | 60731 M⁻¹ cm⁻¹ | 32.91%
C/N=c1/cc2oc3cc(NC)c(C)cc3nc-2cc1C [LGW01-61, (Z)—N-(2,8-dimethyl-7-(methylamino)-3H-phenoxazin-3-ylidene)methanaminium] | 612 nm | 631 nm | 610 nm | 21783 M⁻¹ cm⁻¹ | 40.27%
CC[N+](CC)=c1ccc2nc3cc4c(cc3oc-2c1)NCC4 [LGW03-88, N-(2,3-dihydropyrrolo[3,2-b]phenoxazin-8(1H)-ylidene)-N-ethylethanaminium] | 631 nm | 659 nm | 640 nm | 59737 M⁻¹ cm⁻¹ | 6.22%
CC/N=c1/cc2oc3cc(NC)c(C)cc3nc-2cc1C [LGW04-81, (Z)—N-(2,8-dimethyl-7-(methylamino)-3H-phenoxazin-3-ylidene)ethanaminium] | 616 nm | 634 nm | 615 nm | 52291 M⁻¹ cm⁻¹ | 39.47%
c1cc2nc3ccc(=[N+]4CCCCC4)cc-3oc2cc1N1CCCCC1 [LGW04-91, 1-(7-(piperidin-1-yl)-3H-phenoxazin-3-ylidene)piperidin-1-ium] | 663 nm | 689 nm | 665 nm | 85597 M⁻¹ cm⁻¹ | 2.77%
CC/N=c1/cc2oc3cc4c(cc3nc-2cc1C)CCN4CC [LGW05-76, (Z)—N-(1-ethyl-7-methyl-2,3-dihydropyrrolo[3,2-b]phenoxazin-8(1H)-ylidene)ethanaminium] | 628 nm | 650 nm | 630 nm | 45449 M⁻¹ cm⁻¹ | 32.68%
c1c2c(cc3c1N=c1cc4c(cc1O3)=NCCC4)NCCC2 [LGW03-32, 3,4,8,9,10,11-hexahydro-2H-dipyrido[3,2-b:2′,3′-i]phenoxazin-1-ium] | 631 nm | 644 nm | 630 nm | 45650 M⁻¹ cm⁻¹ | 29.92%

Next, values leading:

Max Abs | Max Em | Max Ex | Extinction coefficient | Quantum yield | Molecule
636 nm | 661 nm | 640 nm | 36833 M⁻¹ cm⁻¹ | 2.70% | CCNc1cc2oc3cc(=[N+](CC)CC)ccc-3nc2cc1F [LGW05-82, N-ethyl-N-(7-(ethylamino)-8-fluoro-3H-phenoxazin-3-ylidene)ethanaminium]
640 nm | 657 nm | 645 nm | 59971 M⁻¹ cm⁻¹ | 23.58% | CC/N=c1/cc2oc3cc4c(cc3nc-2cc1C)CCCN4CC [LGW02-91, (Z)—N-(1-ethyl-8-methyl-1,2,3,4-tetrahydro-9H-pyrido[3,2-b]phenoxazin-9-ylidene)ethanaminium]
635 nm | 653 nm | 635 nm | 56713 M⁻¹ cm⁻¹ | 11.15% | CC/N=c1\ccc2nc3ccc(NCC)c(C)c3oc-2c1C [LGW02-57, (E)-N-(7-(ethylamino)-4,6-dimethyl-3H-phenoxazin-3-ylidene)ethanaminium]
656 nm | 673 nm | 660 nm | 43659 M⁻¹ cm⁻¹ | 9.27% | CCN1CCCc2cc3nc4ccc(=[N+](CC)CC)cc-4oc3cc21 [LGW02-92, N-ethyl-N-(1-ethyl-1,2,3,4-tetrahydro-9H-pyrido[3,2-b]phenoxazin-9-ylidene)ethanaminium]
657 nm | 676 nm | 660 nm | 55570 M⁻¹ cm⁻¹ | 32.95% | CCN1CCOc2cc3c(cc21)Oc1cc2c(cc1=N3)OCC[N+]=2CC [LGW05-73, 4,8-diethyl-3,8,9,10-tetrahydro-2H-bis([1,4]oxazino)[2,3-b:3′,2′-i]phenoxazin-4-ium]
661 nm | 684 nm | 665 nm | 61535 M⁻¹ cm⁻¹ | 7.85% | CCN1CCOc2cc3nc4ccc(=[N+](CC)CC)cc-4oc3cc21 [LGW05-65, N-ethyl-N-(4-ethyl-3,4-dihydro-[1,4]oxazino[2,3-b]phenoxazin-8(2H)-ylidene)ethanaminium]
612 nm | 636 nm | 615 nm | 41527 M⁻¹ cm⁻¹ | 37.22% | CC/N=c1/cc2oc3cc(NCC)c(Cl)cc3nc-2cc1C [LGW05-42, (Z)—N-(8-chloro-7-(ethylamino)-2-methyl-3H-phenoxazin-3-ylidene)ethanaminium]
661 nm | 680 nm | 665 nm | 39472 M⁻¹ cm⁻¹ | 13.18% | CC[N+](CC)=c1ccc2nc3cc4c5c(c3oc-2c1)CCCN5CCC4 [LGW02-86, N-ethyl-N-(2,3,6,7-tetrahydro-1H,5H,12H-quinolizino[1,9-bc]phenoxazin-12-ylidene)ethanaminium]
637 nm | 658 nm | 640 nm | 50981 M⁻¹ cm⁻¹ | 3.95% | (Z)—N-(7-(dimethylamino)-2-methyl-3H-phenoxazin-3-ylidene)ethanaminium [LGW04-84]
635 nm | 660 nm | 640 nm | 41771 M⁻¹ cm⁻¹ | 3.31% | CCNc1ccc2nc3ccc(=[N+](CC)CC)cc-3oc2c1 [LGW01-25, N-ethyl-N-(7-(ethylamino)-3H-phenoxazin-3-ylidene)ethanaminium]
